Assay results published in US9826761B2, “Compositions and methods for mitigating dietary sulfur in animals” (SarTec Corporation, priority 2008, dated 2017).

Columns and labels:
[1] = Titration of approx. 200 mM sulfide in 24 hour old rumen fluid with 1 M MnCl2, BaCl2 or CaCl2, silver/sulfide electrode; parameters: species or system Holstein cows
Description: 24 hour old undiluted rumen fluid from rumen fistulated Holstein cows was obtained. 4 ml of Na2S in water (approximately 1 M) was added to 16 ml of the rumen fluid. The final concentration of sulfide ion in the rumen fluid was approximately 200 mM. […] The progress of the reaction was followed using the same silver/sulfide electrode set-up described above (Orion, Ion Plus Silver/Sulfide 9616BNWP).

[2] = Precipitating activity: rumen fluid containing manganese compound titrated with 1.0M Na2S, silver/sulfide electrode; parameters: species or system Holstein cows; conditions: 100 mM MnO2(IV) in rumen fluid
Description: Next, 0.28 g of MnO(II) was placed in a 100 ml beaker and 20 ml of rumen fluid was added. Then 0.17 g of MnO2(IV) was placed in 100 ml beaker and 20 ml of rumen fluid was added. Each of these compositions, in addition to a rumen fluid control, was then titrated with a 1.0M solution of Na2S. The progress of the reaction was followed using the same silver/sulfide electrode set-up described above (Orion, Ion Plus Silver/Sulfide 9616BNWP).

`[Ba+2].[Cl-].[Cl-]` [BaCl2] gave a mVolts ([1]; Volume 0.0 of 1.0M BaCl2, ~200 mM sulfide) of 942.6 mVolts, a mVolts ([1]; Volume 0.3 of 1.0M BaCl2, ~200 mM sulfide) of 943.7 mVolts and a mVolts ([1]; Volume 0.4 of 1.0M BaCl2, ~200 mM sulfide) of 943.3 mVolts. The mVolts ([1]; Volume 0.6 of 1.0M BaCl2, ~200 mM sulfide) was 942.7 mVolts, the mVolts ([1]; Volume 0.8 of 1.0M BaCl2, ~200 mM sulfide) was 941.3 mVolts and the mVolts ([1]; Volume 1.0 of 1.0M BaCl2, ~200 mM sulfide) was 927.0 mVolts. It also gave a mVolts ([1]; Volume 1.2 of 1.0M BaCl2, ~200 mM sulfide) of 925.6 mVolts, a mVolts ([1]; Volume 1.4 of 1.0M BaCl2, ~200 mM sulfide) of 923.3 mVolts and a mVolts ([1]; Volume 1.6 of 1.0M BaCl2, ~200 mM sulfide) of 922.5 mVolts. It also gave a mVolts ([1]; Volume 1.8 of 1.0M BaCl2, ~200 mM sulfide) of 921.5 mVolts, a mVolts ([1]; Volume 2.0 of 1.0M BaCl2, ~200 mM sulfide) of 920.9 mVolts and a mVolts ([1]; Volume 2.2 of 1.0M BaCl2, ~200 mM sulfide) of 920.5 mVolts. The mVolts ([1]; Volume 2.4 of 1.0M BaCl2, ~200 mM sulfide) was 920.0 mVolts, the mVolts ([1]; Volume 2.6 of 1.0M BaCl2, ~200 mM sulfide) was 919.7 mVolts and the mVolts ([1]; Volume 2.8 of 1.0M BaCl2, ~200 mM sulfide) was 918.8 mVolts. The mVolts ([1]; Volume 3.0 of 1.0M BaCl2, ~200 mM sulfide) was 918.1 mVolts, the mVolts ([1]; Volume 3.2 of 1.0M BaCl2, ~200 mM sulfide) was 917.7 mVolts and the mVolts ([1]; Volume 3.4 of 1.0M BaCl2, ~200 mM sulfide) was 917.2 mVolts. The mVolts ([1]; Volume 3.6 of 1.0M BaCl2, ~200 mM sulfide) was 916.7 mVolts, the mVolts ([1]; Volume 3.8 of 1.0M BaCl2, ~200 mM sulfide) was 916.0 mVolts and the mVolts ([1]; Volume 4.0 of 1.0M BaCl2, ~200 mM sulfide) was 915.6 mVolts. For the same compound, the mVolts ([1]; Volume 4.2 of 1.0M BaCl2, ~200 mM sulfide) was 915.0 mVolts, the mVolts ([1]; Volume 4.4 of 1.0M BaCl2, ~200 mM sulfide) was 914.8 mVolts and the mVolts ([1]; Volume 4.6 of 1.0M BaCl2, ~200 mM sulfide) was 914.4 mVolts. The mVolts ([1]; Volume 4.8 of 1.0M BaCl2, ~200 mM sulfide) was 913.9 mVolts, the mVolts ([1]; Volume 5.0 of 1.0M BaCl2, ~200 mM sulfide) was 913.6 mVolts and the mVolts ([1]; Volume 5.2 of 1.0M BaCl2, ~200 mM sulfide) was 913.0 mVolts. It also gave a mVolts ([1]; Volume 5.4 of 1.0M BaCl2, ~200 mM sulfide) of 913.0 mVolts, a mVolts ([1]; Volume 5.6 of 1.0M BaCl2, ~200 mM sulfide) of 912.7 mVolts and a mVolts ([1]; Volume 5.8 of 1.0M BaCl2, ~200 mM sulfide) of 912.0 mVolts. For the same compound, the mVolts ([1]; Volume 6.0 of 1.0M BaCl2, ~200 mM sulfide) was 911.7 mVolts, the mVolts ([1]; Volume 6.5 of 1.0M BaCl2, ~200 mM sulfide) was 910.7 mVolts and the mVolts ([1]; Volume 7.0 of 1.0M BaCl2, ~200 mM sulfide) was 910.8 mVolts. The mVolts ([1]; Volume 7.5 of 1.0M BaCl2, ~200 mM sulfide) was 909.5 mVolts, the mVolts ([1]; Volume 8.0 of 1.0M BaCl2, ~200 mM sulfide) was 908.3 mVolts and the mVolts ([1]; Volume 8.5 of 1.0M BaCl2, ~200 mM sulfide) was 907.4 mVolts. For the same compound, the mVolts ([1]; Volume 9.0 of 1.0M BaCl2, ~200 mM sulfide) was 906.8 mVolts, the mVolts ([1]; Volume 9.5 of 1.0M BaCl2, ~200 mM sulfide) was 905.7 mVolts and the mVolts ([1]; Volume 10.0 of 1.0M BaCl2, ~200 mM sulfide) was 905.0 mVolts.
In the case of `[Ca+2].[Cl-].[Cl-]` [CaCl2], the mVolts ([1]; Volume 0.0 of 1.0M CaCl2, ~200 mM sulfide) is reported as 945.1 mVolts, the mVolts ([1]; Volume 0.1 of 1.0M CaCl2, ~200 mM sulfide) is reported as 939.8 mVolts and the mVolts ([1]; Volume 0.3 of 1.0M CaCl2, ~200 mM sulfide) is reported as 944.8 mVolts. It also gave a mVolts ([1]; Volume 0.5 of 1.0M CaCl2, ~200 mM sulfide) of 931.6 mVolts, a mVolts ([1]; Volume 0.7 of 1.0M CaCl2, ~200 mM sulfide) of 931.3 mVolts and a mVolts ([1]; Volume 0.9 of 1.0M CaCl2, ~200 mM sulfide) of 931.2 mVolts. The mVolts ([1]; Volume 1.1 of 1.0M CaCl2, ~200 mM sulfide) was 931.1 mVolts, the mVolts ([1]; Volume 1.4 of 1.0M CaCl2, ~200 mM sulfide) was 930.7 mVolts and the mVolts ([1]; Volume 1.6 of 1.0M CaCl2, ~200 mM sulfide) was 927.1 mVolts. For the same compound, the mVolts ([1]; Volume 1.8 of 1.0M CaCl2, ~200 mM sulfide) was 925.7 mVolts, the mVolts ([1]; Volume 2.0 of 1.0M CaCl2, ~200 mM sulfide) was 924.8 mVolts and the mVolts ([1]; Volume 2.2 of 1.0M CaCl2, ~200 mM sulfide) was 923.8 mVolts. For the same compound, the mVolts ([1]; Volume 2.4 of 1.0M CaCl2, ~200 mM sulfide) was 923.0 mVolts, the mVolts ([1]; Volume 2.6 of 1.0M CaCl2, ~200 mM sulfide) was 921.0 mVolts and the mVolts ([1]; Volume 2.8 of 1.0M CaCl2, ~200 mM sulfide) was 920.2 mVolts. The mVolts ([1]; Volume 3.0 of 1.0M CaCl2, ~200 mM sulfide) was 917.5 mVolts, the mVolts ([1]; Volume 3.3 of 1.0M CaCl2, ~200 mM sulfide) was 916.8 mVolts and the mVolts ([1]; Volume 3.4 of 1.0M CaCl2, ~200 mM sulfide) was 915.6 mVolts. The mVolts ([1]; Volume 3.6 of 1.0M CaCl2, ~200 mM sulfide) was 914.9 mVolts, the mVolts ([1]; Volume 3.8 of 1.0M CaCl2, ~200 mM sulfide) was 914.3 mVolts and the mVolts ([1]; Volume 4.0 of 1.0M CaCl2, ~200 mM sulfide) was 913.7 mVolts. The mVolts ([1]; Volume 4.2 of 1.0M CaCl2, ~200 mM sulfide) was 913.1 mVolts, the mVolts ([1]; Volume 4.4 of 1.0M CaCl2, ~200 mM sulfide) was 912.6 mVolts and the mVolts ([1]; Volume 4.6 of 1.0M CaCl2, ~200 mM sulfide) was 912.1 mVolts. For the same compound, the mVolts ([1]; Volume 4.8 of 1.0M CaCl2, ~200 mM sulfide) was 911.0 mVolts, the mVolts ([1]; Volume 5.0 of 1.0M CaCl2, ~200 mM sulfide) was 910.1 mVolts and the mVolts ([1]; Volume 5.2 of 1.0M CaCl2, ~200 mM sulfide) was 909.9 mVolts. The mVolts ([1]; Volume 5.4 of 1.0M CaCl2, ~200 mM sulfide) was 909.5 mVolts, the mVolts ([1]; Volume 5.6 of 1.0M CaCl2, ~200 mM sulfide) was 908.9 mVolts and the mVolts ([1]; Volume 5.8 of 1.0M CaCl2, ~200 mM sulfide) was 908.5 mVolts. It also gave a mVolts ([1]; Volume 6.0 of 1.0M CaCl2, ~200 mM sulfide) of 908.0 mVolts, a mVolts ([1]; Volume 6.5 of 1.0M CaCl2, ~200 mM sulfide) of 906.7 mVolts and a mVolts ([1]; Volume 7.0 of 1.0M CaCl2, ~200 mM sulfide) of 905.5 mVolts. For the same compound, the mVolts ([1]; Volume 7.5 of 1.0M CaCl2, ~200 mM sulfide) was 904.5 mVolts, the mVolts ([1]; Volume 8.0 of 1.0M CaCl2, ~200 mM sulfide) was 903.3 mVolts and the mVolts ([1]; Volume 8.5 of 1.0M CaCl2, ~200 mM sulfide) was 902.3 mVolts. The mVolts ([1]; Volume 9.0 of 1.0M CaCl2, ~200 mM sulfide) was 901.3 mVolts, the mVolts ([1]; Volume 9.5 of 1.0M CaCl2, ~200 mM sulfide) was 900.3 mVolts and the mVolts ([1]; Volume 10.0 of 1.0M CaCl2, ~200 mM sulfide) was 899.6 mVolts.
With `[O]=[Mn]=[O]` [MnO2(IV)] the mVolts ([2]; Vol 1M Na2S 0.0) was 597.2 mVolts, the mVolts ([2]; Vol 1M Na2S 0.1) was 672.5 mVolts and the mVolts ([2]; Vol 1M Na2S 0.2) was 679.4 mVolts. The mVolts ([2]; Vol 1M Na2S 0.3) was 688.1 mVolts, the mVolts ([2]; Vol 1M Na2S 0.4) was 698.0 mVolts and the mVolts ([2]; Vol 1M Na2S 0.5) was 699.4 mVolts. The mVolts ([2]; Vol 1M Na2S 0.7) was 709.7 mVolts, the mVolts ([2]; Vol 1M Na2S 0.8) was 720.0 mVolts and the mVolts ([2]; Vol 1M Na2S 0.9) was 728.2 mVolts. For the same compound, the mVolts ([2]; Vol 1M Na2S 1.0) was 738.1 mVolts, the mVolts ([2]; Vol 1M Na2S 1.1) was 732.5 mVolts and the mVolts ([2]; Vol 1M Na2S 1.2) was 737.4 mVolts. The mVolts ([2]; Vol 1M Na2S 1.3) was 740.0 mVolts, the mVolts ([2]; Vol 1M Na2S 1.4) was 749.2 mVolts and the mVolts ([2]; Vol 1M Na2S 1.5) was 742.7 mVolts. For the same compound, the mVolts ([2]; Vol 1M Na2S 1.8) was 762.4 mVolts, the mVolts ([2]; Vol 1M Na2S 2.1) was 776.0 mVolts and the mVolts ([2]; Vol 1M Na2S 2.4) was 784.3 mVolts. For the same compound, the mVolts ([2]; Vol 1M Na2S 2.6) was 791.9 mVolts, the mVolts ([2]; Vol 1M Na2S 2.8) was 796.6 mVolts and the mVolts ([2]; Vol 1M Na2S 3.0) was 803.1 mVolts. It also gave a mVolts ([2]; Vol 1M Na2S 3.2) of 806.0 mVolts, a mVolts ([2]; Vol 1M Na2S 3.5) of 817.4 mVolts and a mVolts ([2]; Vol 1M Na2S 3.7) of 817.0 mVolts. It also gave a mVolts ([2]; Vol 1M Na2S 3.9) of 816.5 mVolts and a mVolts ([2]; Vol 1M Na2S 4.1) of 817.2 mVolts.
